From patent US11865118B2, “Heterocyclic compounds and their use in preventing or treating bacterial infections” (MUTABILIS, priority 2018, dated 2024)
Where a name gives a salt, the structure may show the parent alone.

Columns and labels:
Assay in all cases: MIC of compounds alone, broth microdilution (CLSI)
Type in all cases: cell-based
E. coli ECO 190317 = details: Escherichia coli, ECO190317, substance alone, TEM-1, SHV-12, CTX-M-15, OXA-1
Procedure: (§1) Compounds of the present invention were assessed against genotyped bacterial strains alone or in combination with the β-lactam ceftazidime.

P. aeruginosa PAE UFR49 = details: Pseudomonas aeruginosa, PAEUFR49, substance alone, VIM-2
Procedure: as §1

P. aeruginosa PAE UFR92 = details: Pseudomonas aeruginosa, PAEUFR92, read-out: MIC alone PAE UFR92
Procedure: as §1

P. aeruginosa PAE 107051 = details: Pseudomonas aeruginosa, PAE107051, substance alone, TEM-24, OXA-1
Procedure: as §1

[1] = test system: P. aeruginosa PAE 105250 (AH); details: Pseudomonas aeruginosa, substance alone, OXA-15
Procedure: as §1

K. pneumoniae KPN 121206 = details: Klebsiella pneumoniae, KPN121206, substance alone, SHV-1, NDM-1
Procedure: as §1

E. cloacae ECL P99 = details: Enterobacter cloacae, ECLP99, substance alone, AmpC
Procedure: as §1

E. coli ECO UFR39 = details: Escherichia coli, ECOUFR39, substance alone, CTX-M-15, NDM-1
Procedure: as §1

Compound | MIC (E. coli ECO 190317) [µg/mL] | MIC (P. aeruginosa PAE UFR49) [µg/mL] | MIC (P. aeruginosa PAE UFR92) [µg/mL] | MIC (P. aeruginosa PAE 107051) [µg/mL] | MIC [1] [µg/mL] | MIC (K. pneumoniae KPN 121206) [µg/mL] | MIC (E. cloacae ECL P99) [µg/mL] | MIC (E. coli ECO UFR39) [µg/mL]
CN(C)C(=O)[C@H]1c2nc(C(=O)NCCNC(=N)N)sc2[C@@H]2CN1C(=O)N2OS(=O)(=O)O (relative stereo) [Example 9, [trans-4-(dimethylcarbamoyl)-2-(2-guanidinoethylcarbamoyl)-5,8-methano-6-oxo-4,8-dihydrothiazolo[4,5-e][1,3]diazepin-7-yl] hydrogen sulfate] | 32 | 4 | 32 | 8 | 8 | > 32 | > 32 | > 32
CN(C)C(=O)[C@@H]1c2c(CNC(=N)N)csc2[C@H]2CN1C(=O)N2OS(=O)(=O)O.O=C(O)C(F)(F)F (relative stereo) [Example 10, [N-[[trans-4-(dimethylcarbamoyl)-5,8-methano-6-oxo-7-sulfooxy-4,8-dihydrothieno[2,3-e][1,3]diazepin-3-yl]methyl]carbamimidoyl]ammonium 2,2,2-trifluoroacetate] | 2 | 8 | 8 | 4 | 8 | 32 | 16 | 32
CN(C)C(=O)[C@@H]1c2c(CCNC(=N)N)csc2C2CN1C(=O)N2OS(=O)(=O)O (stereo in doubt) [Example 11, [(trans-4-(dimethylcarbamoyl)-3-(2-quanidinoethyl)-5,8-methano-6-oxo-4,8-dihydrothieno[2,3-e][1,3]diazepin-7-yl] hydrogen sulfate] | 4 | 4 | 8 | 4 | 4 | > 32 | 16 | > 32
CC(C)(O/N=C(\C(=O)N[C@@H]1C(=O)N2C(C(=O)[O-])=C(C[n+]3ccccc3)CS[C@H]12)c1csc(N)n1)C(=O)O [CAZ, ceftazidime] | 128 | 64 | 32 | 256 | 256 | > 256 | 128 | > 256
NCCNC(=O)c1nc2c(s1)C1CN(C2)C(=O)N1S(=O)(=O)O (stereo not drawn) [Example 1, [2-(2-aminoethylcarbamoyl)-5,8-methano-6-oxo-4,8-dihydrothiazolo[4,5-e][1,3]diazepin-7-yl]sulfonic acid] | 0.25 | 16 | 8 | 8 | 8 | 32 | 2 | 0.5
N=C(N)NCc1nc2c(s1)C1CN(C2)C(=O)N1OS(=O)(=O)O (stereo not drawn) [Example 2] | 0.063 | 4 | 4 | 2 | 4 | > 32 | 1 | 0.125
N=C(N)NCCNC(=O)c1nc2c(s1)C1CN(C2)C(=O)N1OS(=O)(=O)O (stereo not drawn) [Example 3, [2-(2-quanidinoethylcarbamoyl)-5,8-methano-6-oxo-4,8-dihydrothiazolo[4,5-e][1,3]diazepin-7-yl]sulfonic acid] | 0.5 | 16 | 8 | 4 | 8 | 16 | 0.5 | 2
NCc1nc2c(s1)C1CN(C2)C(=O)N1OS(=O)(=O)O (stereo not drawn) [Example 4] | 0.25 | 32 | 32 | > 32 | 32 | 32 | 1 | 0.25
O=C(Nc1nc2c(s1)C1CN(C2)C(=O)N1OS(=O)(=O)[O-])OCc1ccccc1.[Na+] (stereo not drawn) [Example 5] | > 32 | > 32 | > 32 | > 32 | > 32 | > 32 | > 32 | > 32
CC(=O)Nc1nc2c(s1)C1CN(C2)C(=O)N1OS(=O)(=O)[O-].[Na+] (stereo not drawn) [Example 6] | 2 | > 32 | > 32 | > 32 | > 32 | > 32 | 16 | 4
O=C1N2Cc3ccsc3C(C2)N1OS(=O)(=O)[O-].[Na+] (stereo not drawn) [Example 7] | 2 | > 32 | > 32 | > 32 | > 32 | > 32 | 8 | 4
CCOC(=O)[C@@H]1c2c(-c3ccc(F)cc3)csc2[C@@H]2CN1C(=O)N2OS(=O)(=O)[O-].[Na+] [Example 8] | > 32 | > 32 | > 32 | > 32 | > 32 | > 32 | > 32 | > 32
